Data from US20250017937A1, “MGLU2/3 ANTAGONISTS FOR THE TREATMENT OF INTELLECTUAL DISABILITIES” (Hoffmann-La Roche Inc., priority 2014, published 2025).

Tested on: Shank3 KO mice
Assay: Water maze cognition experiment (acquisition and reversal learning) in Shank3 KO mice
Type: in vivo, mouse
Conditions: female SHANK3-KO mice
Source text: Example 1: Cognition experiment in Shank3 KO mice an animal model of ASD with reported impairment in cognition
11-12 female wild-type and Shank3 KO mice on C57B16/J background were from F. Hoffmann La Roche breeding facilities, and were 10 weeks old at the beginning of the study. 20male Nlgn3 knockout rats and 20 littermate wild-type controls (background: Sprague Dawley) were from F. Hoffmann La Roche breeding facilities. All rats and mice were group-housed in holding rooms at controlled temperature (20-22° C.), humidity (55-65%) and 12-h light/dark cycle (lights on 06:00 h). All animals were allowed ad libitum access to food and water. The experimental procedures used in the present investigation received prior approval from the City of Basel Cantonal Animal Protection Committee based on adherence to federal and local regulations.
II-a were synthesized at F. Hoffmann-La Roche Ltd. according to procedures known in the art^12. Both compounds were prepared as a suspension in 0.3% Tween 80 v/v 0.9% saline and administered per os by gavage using an administration volume of 5 ml/kg (rat) or 10 ml/kg (mouse). […] All doses reported in this study are expressed as free base equivalents.
On days 1-7, II-a was administered once daily per os with 10 mg/kg (WT: n=11: KO: n=12) or vehicle (WT: n=12; KO: n=12), 3 h prior to testing from day 1 of water maze until the last day of testing. The dose of II-a was reduced to 7 mg/kg on days 8-16. Water maze was conducted on days 1-12 of treatment, with 2 days for “shaping” prior to the start of drug treatment. The grooming/digging test was conducted on days 15-16. […]
Data analysis: The mean latency, path length, and swim speed were assessed during acquisition and reversal learning. In the probe trial, the percent time spent searching for the previous platform in each quadrant (left, platform, right, and opposite), and the number of platform crossings were measured.

## Cc1cc(-c2ccc(C(F)(F)F)cc2)cc(-c2cccc(-c3cccc(S(N)(=O)=O)c3)n2)n1 [II-a]
FIGS. 1 and 2, C57BL/6j background, 10 weeks old, II-a 10 mg/kg po chronic vs Veh
  latency to reach platform (mean latency during acquisition and reversal learning): some improvement in latency to reach platform in KO mice only
FIGS. 1 and 2, II-a 10 mg/kg po chronic vs Veh
  path length during acquisition and reversal learning: significant block 7
FIGS. 3 and 4, II-a 10 mg/kg po chronic, repeated measures analysis of variance
  memory impairment in the KO-Veh compared to WT-Veh (water maze): improvement
